Patent US20220008359A1, “COMBINATION ANTI-CANCER PRODUCTS AND METHODS” (priority 2020, published 2022)
Marks after values point to notes of the source that are not given here.

Assays:
H1975 cells = test: Trypan blue cell death assay, H1975 cells (wild type, afatinib- and osimertinib-resistant); format: cell-based, human; details: osimertinib-resistant H1975 and H1650 cells, 24 h
Experimental: Detection of cell death by trypan blue assay. Cells were treated with vehicle control or with drugs alone or in combination for 24 h. At the indicated time points cells were harvested by trypsinization and centrifugation. Cell pellets were resuspended in PBS and mixed with trypan blue agent. Viability was determined microscopically using a hemocytometer. Five hundred cells from randomly chosen fields were counted and the number of dead cells was counted and expressed as a percentage of the total number of cells counted.
H1650, wild type sensitive and afatinib resistant (AR) H1975 and erlotinib resistant (ER) HCC827 cells were treated with vehicle, erlotinib (500 nM), afatinib (500 nM), GZ17-6.02 (2 mM curcumin final) or the drugs in combination for 24 h. […] In a separate study, cells were treated with vehicle, osimertinib (100 nM), GZ17-6.02 (2 mM curcumin final) or the drugs in combination for 24 h.
Osimertinib-resistant H1975 and H1650 cells were generated as described and studied to determine if GZ17-6.02 interacts with pemetrexed to kill NSCLC cells. H1975 and H1650 cells (wild type sensitive and osimertinib resistant (OR)) were treated with vehicle, erlotinib (500 nM), afatinib (500 nM), osimertinib (100 nM), GZ17-6.02 (2 mM curcumin final) or the drugs in combination for 24 h. […]

[1] = test system: CD56+ natural killer cells; test: Viability and effects on CD56+ natural killer cells after 72 hours of exposure; format: cell-based
Experimental: (§1) In vitro assays designed to assess the viability and effects of GZ17-6.02, GZ17-6.02.02, its metabolites as single agents, and the metabolites in combination effects of CD8+ T cells and CD56+ natural killer cells after 72 hours of exposure. Test agents used included 6.02 (77% Isovanillin+13% Harmine+10% Curcumin), 6.02.02 (77% Isovanillin+13% Harmine+8.5% Curcumin sulfate tetrabutylammonium salt+1.5% Curcumin β-D-glucuronide), Curcumin metabolites combination (85% Curcumin sulfate tetrabutylammonium salt+15% Curcumin β-D-glucuronide), Curcumin metabolites single agents (single agent Curcumin sulfate tetrabutylammonium salt, or single agent Curcumin 3-D-glucuronide).

CD8+ T cells = test: Viability and effects on CD8+ T cells after 72 hours of exposure; format: cell-based
Experimental: as §1

[2] = test system: afatinib-resistant (AR) H1975 cells; test: In-cell immunostaining of protein expression and phosphorylation, afatinib-resistant H1975 cells; format: cell-based, human; details: 1975 AR; 6 h; GZ17-6.02 2 mM final curcumin, osimertinib 100 nM; vehicle 100%
Experimental: (§2) […] Cells were fixed in place 6 hours after treatment and immunostaining of single cells performed to determine the levels of each protein/phosphor-protein (n=3+/−SD). * p<0.05 less than vehicle control; # p<0.05 greater than vehicle control.
Generation of erlotinib, afatinib and osimertinib-resistant cells. Cells were incubated in vitro with increasing concentrations of vehicle control or erlotinib or osimertinib until after ˜6 weeks the HCC827 and H1975 and H1650 cells grew with similar kinetics to sensitive cells in either erlotinib ([…]) or osimertinib ([…]), respectively. Afatinib-resistant cells were created in vivo by repeated high dosing until tumors disappeared and then regrew, as previously described.
(§3) Assessments of protein expression and protein phosphorylation. Multi-channel fluorescence HCS microscopes perform true in-cell western blotting. Three independent cultures derived from three thawed vials of cells of a tumor were sub-cultured into individual 96-well plates. Twenty-four hours after plating, the cells are transfected with a control plasmid or a control siRNA, or with an empty vector plasmid or with plasmids to express various proteins. After another 24 hours, the cells are ready for drug exposure(s). At various time-points after the initiation of drug exposure, cells are fixed in place using paraformaldehyde and using Triton X100 for permeabilization. Standard immunofluorescent blocking procedures are employed, followed by incubation of different wells with a variety of validated primary antibodies and subsequently validated fluorescent-tagged secondary antibodies are added to each well. The microscope determines the background fluorescence in the well and in parallel randomly determines the mean fluorescent intensity of 100 cells per well.

H1650 cells (wild type) = test: In-cell immunostaining of protein expression and phosphorylation, H1650 wild type cells; format: cell-based, human; details: 1650 WT; 6 h; GZ17-6.02 2 mM final curcumin, osimertinib 100 nM; vehicle 100%
Experimental: as §3

[3] = test system: H1975 cells (wild type sensitive); test: In-cell immunostaining of protein expression and phosphorylation, H1975 wild type cells; format: cell-based, human; details: 1975 WT; 6 h; GZ17-6.02 2 mM final curcumin, osimertinib 100 nM; vehicle 100%
Experimental: as §2, §3

C#Cc1cccc(Nc2ncnc3cc(OCCOC)c(OCCOC)cc23)c1 [erlotinib, Erlotinib]
ability to enhance GZ17-6.02 killing (H1975 cells): abolished

C=CC(=O)Nc1cc(Nc2nccc(-c3cn(C)c4ccccc34)n2)c(OC)cc1N(C)CCN(C)C [osimertinib, Osimertinib]
ability to enhance GZ17-6.02 killing (H1975 cells): abolished

Curcumin sulfate tetrabutylammonium salt
CD56 + NK Cells % of control ([1]; 0.03 μM): 104.14 % of control
CD56 + NK Cells % of control ([1]; 0.3 μM): 103.40 % of control
CD56 + NK Cells % of control ([1]; 3 μM): 110.77 % of control
CD56 + NK Cells % of control ([1]; 30 μM): 107.76 % of control
CD8 + T Cells % of control (CD8+ T cells; 0.03 μM): 107.62 % of control
CD8 + T Cells % of control (CD8+ T cells; 0.3 μM): 170.61 % of control
CD8 + T Cells % of control (CD8+ T cells; 3 μM): 154.26 % of control
CD8 + T Cells % of control (CD8+ T cells; 30 μM): 143.23 % of control

COc1cc(/C=C/C(=O)CC(=O)/C=C/c2ccc(O[C@@H]3O[C@H](C(=O)O)[C@@H](O)[C@H](O)[C@H]3O)c(OC)c2)ccc1O [Curcumin B-D-Glucuronide, Curcumin β-D-glucuronide]
CD56 + NK Cells % of control ([1]; 0.03 μM): 98.08 % of control
CD56 + NK Cells % of control ([1]; 0.3 μM): 100.22 % of control
CD56 + NK Cells % of control ([1]; 3 μM): 93.81 % of control
CD56 + NK Cells % of control ([1]; 30 μM): 95.28 % of control
CD8 + T Cells % of control (CD8+ T cells; 0.03 μM): 124.35 % of control
CD8 + T Cells % of control (CD8+ T cells; 0.3 μM): 114.54 % of control
CD8 + T Cells % of control (CD8+ T cells; 3 μM): 118.58 % of control
CD8 + T Cells % of control (CD8+ T cells; 30 μM): 110.23 % of control

C=CC(=O)Nc1cc(Nc2nccc(-c3cn(C)c4ccccc34)n2)c(OC)cc1N(C)CCN(C)C [OSI]
ATG5 [2]: 105%
Beclin1 [2]: 109%
CHOP [2]: 102%
ERBB1 [2]: 100%
ERBB2 [2]: 102%
ERBB3 [2]: 101%
ERBB4 [2]: 98%
FLIP-s [2]: 79* %
GRP78 [2]: 103# %
NOXA [2]: 100%
P-AKT T308 [2]: 86* %
P-AMPKα T172 [2]: 102%
P-ATG13 S318 [2]: 121# %
P-ATM S1980 [2]: 101%
P-B1 [2]: 76* %
P-B2 [2]: 101%
P-B3 [2]: 100%
P-B4 [2]: 97%
P-MEK1/2 [2]: 82* %
P-PERK T980 [2]: 111%
P-STAT3 Y705 [2]: 92%
P-STAT5 Y694 [2]: 95%
P-ULK1 S317 [2]: 99%
P-ULK1 S757 [2]: 65* %
P-eIF2α S51 [2]: 105%
P-mTOR S2448 [2]: 66* %
P-mTOR S2481 [2]: 71* %
PP1 [2]: 112%
PUMA [2]: 98%
Total ERK2 [2]: 100%
p70 S6K T389 [2]: 99%
ATG5 (H1650 cells (wild type)): 106%
Beclin1 (H1650 cells (wild type)): 103%
CD95 (H1650 cells (wild type)): 100%
CHOP (H1650 cells (wild type)): 106%
ERBB1 (H1650 cells (wild type)): 98%
ERBB2 (H1650 cells (wild type)): 94%
ERBB3 (H1650 cells (wild type)): 100%
ERBB4 (H1650 cells (wild type)): 100%
ERK2 (H1650 cells (wild type)): 100%
FAS-L (H1650 cells (wild type)): 104%
FLIP-s (H1650 cells (wild type)): 102%
GRP78 (H1650 cells (wild type)): 111%
HDAC1 (H1650 cells (wild type)): 99%
HDAC2 (H1650 cells (wild type)): 98%
HDAC3 (H1650 cells (wild type)): 98%
HDAC4 (H1650 cells (wild type)): 101%
HDAC5 (H1650 cells (wild type)): 99%
HDAC6 (H1650 cells (wild type)): 98%
HDAC7 (H1650 cells (wild type)): 99%
HDAC8 (H1650 cells (wild type)): 101%
HDAC9 (H1650 cells (wild type)): 100%
HDAC10 (H1650 cells (wild type)): 98%
HDAC11 (H1650 cells (wild type)): 100%
IDO1 (H1650 cells (wild type)): 100%
JNK1/2 (H1650 cells (wild type)): 104%
MHCA (H1650 cells (wild type)): 103%
NOXA (H1650 cells (wild type)): 101%
ODC (H1650 cells (wild type)): 104%
P-AKT T308 (H1650 cells (wild type)): 90%
P-AMPKα T172 (H1650 cells (wild type)): 98%
P-ATG13 S318 (H1650 cells (wild type)): 115# %
P-ATM S1980 (H1650 cells (wild type)): 98%
P-B1 (H1650 cells (wild type)): 61* %
P-B2 (H1650 cells (wild type)): 97%
P-B3 (H1650 cells (wild type)): 96%
P-B4 (H1650 cells (wild type)): 96%
P-ERK1/2 (H1650 cells (wild type)): 82* %
P-JAK2 (H1650 cells (wild type)): 86* %
P-JNK1/2 (H1650 cells (wild type)): 91%
P-MEK1/2 (H1650 cells (wild type)): 97%
P-NFκB S536 (H1650 cells (wild type)): 83* %
P-PDGFRβ (H1650 cells (wild type)): 93%
P-PERK T980 (H1650 cells (wild type)): 104%
P-SRC Y416 (H1650 cells (wild type)): 83* %
P-SRC Y527 (H1650 cells (wild type)): 105%
P-STAT3 Y705 (H1650 cells (wild type)): 95%
P-STAT5 Y694 (H1650 cells (wild type)): 98%
P-TAZ S89 (H1650 cells (wild type)): 101%
P-ULK1 S317 (H1650 cells (wild type)): 107%
P-ULK1 S757 (H1650 cells (wild type)): 81* %
P-YAP S127 (H1650 cells (wild type)): 102%
P-c-KIT (H1650 cells (wild type)): 92%
P-c-MET (H1650 cells (wild type)): 94%
P-eIF2α S51 (H1650 cells (wild type)): 114%
P-mTOR S2448 (H1650 cells (wild type)): 96%
P-mTOR S2481 (H1650 cells (wild type)): 87* %
P-β-catenin (H1650 cells (wild type)): 102%
PD-L1 (H1650 cells (wild type)): 97%
PD-L2 (H1650 cells (wild type)): 97%
PDGFRβ (H1650 cells (wild type)): 106%
PP1 (H1650 cells (wild type)): 103%
PUMA (H1650 cells (wild type)): 100%
TAZ (H1650 cells (wild type)): 101%
Total ERK2 (H1650 cells (wild type)): 100%
YAP (H1650 cells (wild type)): 98%
c-KIT (H1650 cells (wild type)): 100%
c-MET (H1650 cells (wild type)): 98%
p70 S6K T389 (H1650 cells (wild type)): 99%
β-catenin (H1650 cells (wild type)): 101%
ATG5 [3]: 111%
Beclin1 [3]: 113# %
CD95 [3]: 102%
CHOP [3]: 109%
ERBB1 [3]: 99%
ERBB2 [3]: 100%
ERBB3 [3]: 101%
ERBB4 [3]: 99%
ERK2 [3]: 99%
FAS-L [3]: 101%
FLIP-s [3]: 85* %
GRP78 [3]: 119# %
HDAC1 [3]: 97%
HDAC2 [3]: 99%
HDAC3 [3]: 96%
HDAC4 [3]: 93%
HDAC5 [3]: 100%
HDAC6 [3]: 105%
HDAC7 [3]: 103%
HDAC8 [3]: 99%
HDAC9 [3]: 98%
HDAC10 [3]: 99%
HDAC11 [3]: 96%
IDO1 [3]: 99%
JNK1/2 [3]: 101%
MHCA [3]: 96%
NOXA [3]: 100%
ODC [3]: 100%
P-AKT T308 [3]: 81* %
P-AMPKα T172 [3]: 101%
P-ATG13 S318 [3]: 126# %
P-ATM S1980 [3]: 100%
P-B1 [3]: 73* %
P-B2 [3]: 101%
P-B3 [3]: 100%
P-B4 [3]: 102%
P-ERK1/2 [3]: 70* %
P-JAK2 [3]: 83* %
P-JNK1/2 [3]: 89%
P-MEK1/2 [3]: 83* %
P-NFκB S536 [3]: 100%
P-PDGFRβ [3]: 89%
P-PERK T980 [3]: 109%
P-SRC Y416 [3]: 95%
P-SRC Y527 [3]: 102%
P-STAT3 Y705 [3]: 92%
P-STAT5 Y694 [3]: 88%
P-TAZ S89 [3]: 114# %
P-ULK1 S317 [3]: 105%
P-ULK1 S757 [3]: 63* %
P-YAP S127 [3]: 113# %
P-c-KIT [3]: 99%
P-c-MET [3]: 92%
P-eIF2α S51 [3]: 109%
P-mTOR S2448 [3]: 68* %
P-mTOR S2481 [3]: 68* %
P-β-catenin [3]: 111%
PD-L1 [3]: 99%
PD-L2 [3]: 97%
PDGFRβ [3]: 100%
PP1 [3]: 104%
PUMA [3]: 99%
TAZ [3]: 100%
Total ERK2 [3]: 99%
YAP [3]: 99%
c-KIT [3]: 98%
c-MET [3]: 101%
p70 S6K T389 [3]: 92%
β-catenin [3]: 98%
